Results on 3 compounds are retold here after ChEMBL document CHEMBL1122857, “A uniquely potent renin inhibitor and its unanticipated plasma binding component” (J Med Chem, 1985).

Non-standard residues stand in square brackets, D forms with d. Residues, ends and D or L forms follow the SMILES beside them. *: point of attachment. Sta = CC(C)C[C@H](N)[C@@H](O)CC(=O)O; X1 = c1ccc(CN2CCC(N*)CC2)cc1; Boc = CC(C)(C)OC(=O)*

The target of experiment [1] is T1, Renin (Homo sapiens, UniProt P00797).
T1 sequence (P00797 whole entry): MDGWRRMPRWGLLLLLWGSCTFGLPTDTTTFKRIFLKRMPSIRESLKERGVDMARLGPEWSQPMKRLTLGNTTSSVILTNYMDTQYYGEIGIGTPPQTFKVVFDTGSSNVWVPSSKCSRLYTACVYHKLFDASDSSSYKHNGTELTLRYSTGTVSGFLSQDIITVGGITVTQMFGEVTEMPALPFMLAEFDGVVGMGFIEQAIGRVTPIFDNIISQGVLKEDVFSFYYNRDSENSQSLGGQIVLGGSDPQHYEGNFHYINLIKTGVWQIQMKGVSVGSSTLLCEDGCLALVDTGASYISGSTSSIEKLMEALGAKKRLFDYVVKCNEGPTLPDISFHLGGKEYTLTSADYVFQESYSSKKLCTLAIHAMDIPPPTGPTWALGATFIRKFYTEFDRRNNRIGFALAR
As to the kind of experiment: Compound was tested for inhibition of human kidney renin.

Experiment [2] deals with Renin (Sus scrofa). As to the kind of experiment: Compound was tested for inhibition of hog kidney renin. The following applies: read-out: I50.
The target in experiment [3] is T1, Renin. As to the kind of experiment: (§1) Compound was tested for inhibition of human plasma renin. Format: cell-free. The following applies: read-out: I50.
Experiment [4] concerns the target T2, Renin (Homo sapiens) (UniProt P00797).
T2 sequence (whole entry): T1 sequence (P00797 whole entry)
The description is as §1. Type of experiment: cell-free. The following applies: concentration not given here.

A word on the Ki: it is the equilibrium dissociation constant of an inhibitor or competing ligand from its target. In turn, `CC(C)C[C@H](NC(=O)C[C@H](O)[C@H](CC(C)C)NC(=O)[C@H](Cc1c[nH]cn1)NC(=O)[C@H](Cc1ccccc1)NC(=O)OC(C)(C)C)C(=O)NC1CCN(Cc2ccccc2)CC1` (Boc-FH[Sta]L-X1) registered a Ki in experiment [1] of 0.064 nM. Also, the IC50 amounted to 269 nM in experiment [2] and 25 nM in experiment [3].
Regarding `CC(C)C[C@H](NC(=O)C[C@H](O)[C@H](CC(C)C)NC(=O)[C@H](Cc1ccccc1)NC(=O)[C@H](Cc1ccccc1)NC(=O)OC(C)(C)C)C(=O)N[C@@H](Cc1ccccc1)C(N)=O` (Boc-FF[Sta]LF-NH2), the affinity in experiment [1] corresponds to a Ki of 4.8 nM. Also, the IC50 in experiment [2] was found to be 88 nM.
A word on the inhibition: it is the relative decrease from the control value, in per cent. High values mean strong suppression, low ones little suppression. Consider `CC(C)C[C@@H](CNCc1ccccc1)NC(=O)C[C@H](O)[C@H](CC(C)C)NC(=O)[C@H](Cc1ccccc1)NC(=O)[C@H](Cc1ccccc1)NC(=O)OC(C)(C)C`, for which the Ki in experiment [1] turned out to be 0.026 nM. The inhibition in experiment [4] came to 37%. Also, the IC50 in experiment [2] was 858 nM; in experiment [3], 1000 nM.
